Experimental data published in paper PMC7666069 (Journal of medicinal chemistry, 2020).
Where two headings read alike, the source gives them in different places.

How the values were obtained:
CB2 receptor = details: cited from earlier work
CB1 receptor = details: cited from earlier work
5-HT2C = target: T1, 5-HT2C (Homo sapiens, UniProt P28335); assay: PDSP receptor profiling; format: binding
T1 sequence (P28335 33-458): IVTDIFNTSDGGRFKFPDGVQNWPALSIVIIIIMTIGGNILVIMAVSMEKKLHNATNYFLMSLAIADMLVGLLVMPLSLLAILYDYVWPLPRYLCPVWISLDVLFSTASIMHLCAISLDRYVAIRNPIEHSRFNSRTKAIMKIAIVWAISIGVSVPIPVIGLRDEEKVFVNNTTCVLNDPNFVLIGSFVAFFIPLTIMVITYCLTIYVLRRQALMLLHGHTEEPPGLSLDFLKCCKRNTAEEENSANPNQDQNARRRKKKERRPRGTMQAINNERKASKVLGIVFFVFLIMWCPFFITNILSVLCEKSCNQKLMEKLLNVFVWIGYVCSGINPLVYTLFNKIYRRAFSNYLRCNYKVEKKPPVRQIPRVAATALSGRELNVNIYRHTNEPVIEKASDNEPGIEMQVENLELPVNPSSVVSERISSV

KOR = KOR (Homo sapiens, UniProt P41145); assay: PDSP receptor profiling; format: binding
mice = details: oral single 246–2460 mg/kg or 61.5–615 mg/kg for 10 days; cited from earlier work
σ2 = target: T2, σ2 (Rattus norvegicus, UniProt Q5U3Y7); assay: PDSP receptor profiling; format: binding
T2 sequence (Q5U3Y7 1-176): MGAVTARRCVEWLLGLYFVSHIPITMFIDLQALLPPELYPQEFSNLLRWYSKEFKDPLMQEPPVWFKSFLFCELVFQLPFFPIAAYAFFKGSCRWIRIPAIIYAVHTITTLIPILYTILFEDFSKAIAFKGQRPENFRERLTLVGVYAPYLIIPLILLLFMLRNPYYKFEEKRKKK

5-HT1A receptor = details: displacement of agonist [3H]-8-OH-DPAT; cited from earlier work
DOR = DOR (Homo sapiens, UniProt P41143); assay: PDSP receptor profiling; format: binding
[1] = patients with schizophrenia, 800 mg/day, not placebo-controlled; cited from earlier work
[2] = Colloidal aggregate detection by dynamic light scattering; format: physicochemical; details: critical aggregation concentration can vary several-fold with conditions
D1 = D1 (Homo sapiens, UniProt P21728); assay: PDSP receptor profiling; format: binding
ɑ2C = target: T3, ɑ2C (Homo sapiens, UniProt P18825); assay: PDSP receptor profiling; format: binding
T3 sequence (P18825 1-462): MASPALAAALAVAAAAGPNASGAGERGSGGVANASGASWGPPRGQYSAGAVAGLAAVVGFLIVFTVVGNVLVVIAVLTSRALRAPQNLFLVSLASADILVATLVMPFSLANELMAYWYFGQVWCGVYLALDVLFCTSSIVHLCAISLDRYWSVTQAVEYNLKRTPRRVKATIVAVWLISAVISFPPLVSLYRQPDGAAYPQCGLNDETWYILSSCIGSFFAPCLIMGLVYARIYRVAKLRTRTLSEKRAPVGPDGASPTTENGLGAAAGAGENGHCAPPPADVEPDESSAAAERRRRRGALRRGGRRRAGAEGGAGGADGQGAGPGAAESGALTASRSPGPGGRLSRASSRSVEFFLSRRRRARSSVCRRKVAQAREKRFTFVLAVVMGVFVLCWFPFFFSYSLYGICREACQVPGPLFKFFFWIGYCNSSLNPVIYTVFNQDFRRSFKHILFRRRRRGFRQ

[3] = cited from earlier work
[4] = room temperature; air oxidation to cannabidiol hydroxyquinone; cited from earlier work
[5] = cited from earlier work; for apparent plasma clearance (CL'): oromucosal spray
ion channels = details: membrane pressure and direct binding; cited from earlier work
H3 = H3 (Homo sapiens, UniProt Q9Y5N1); assay: PDSP receptor profiling; format: binding
[6] = tested on: malate dehydrogenase (MDH); assay: MDH orthogonal aggregation counter screen; format: biochemical; details: 33 or 100 μM; presence or absence of 0.01% Triton X-100
MOR = MOR (Homo sapiens, UniProt P35372); assay: PDSP receptor profiling; format: binding
ɑ2b = target: T4, ɑ2b (Homo sapiens, UniProt P18089); assay: PDSP receptor profiling; format: binding
T4 sequence (P18089 1-450): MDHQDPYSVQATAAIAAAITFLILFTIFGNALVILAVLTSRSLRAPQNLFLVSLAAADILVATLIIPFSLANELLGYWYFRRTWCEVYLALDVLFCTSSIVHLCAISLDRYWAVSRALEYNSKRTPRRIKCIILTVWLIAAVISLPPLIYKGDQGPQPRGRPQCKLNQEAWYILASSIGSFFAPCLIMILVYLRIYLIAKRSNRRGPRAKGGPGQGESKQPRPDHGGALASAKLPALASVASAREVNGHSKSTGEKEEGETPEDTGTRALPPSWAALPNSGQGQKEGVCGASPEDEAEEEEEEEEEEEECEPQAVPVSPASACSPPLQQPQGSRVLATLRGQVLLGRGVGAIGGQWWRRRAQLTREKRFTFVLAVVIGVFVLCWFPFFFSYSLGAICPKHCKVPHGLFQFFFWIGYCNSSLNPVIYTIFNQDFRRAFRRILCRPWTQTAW

AmpC β-lactamase = AmpC β-lactamase (Escherichia coli, UniProt P00811); assay: AmpC colloidal aggregation counter screen; format: biochemical; details: low micromolar concentrations; with/without detergent
Sequence of AmpC β-lactamase (P00811 20-377): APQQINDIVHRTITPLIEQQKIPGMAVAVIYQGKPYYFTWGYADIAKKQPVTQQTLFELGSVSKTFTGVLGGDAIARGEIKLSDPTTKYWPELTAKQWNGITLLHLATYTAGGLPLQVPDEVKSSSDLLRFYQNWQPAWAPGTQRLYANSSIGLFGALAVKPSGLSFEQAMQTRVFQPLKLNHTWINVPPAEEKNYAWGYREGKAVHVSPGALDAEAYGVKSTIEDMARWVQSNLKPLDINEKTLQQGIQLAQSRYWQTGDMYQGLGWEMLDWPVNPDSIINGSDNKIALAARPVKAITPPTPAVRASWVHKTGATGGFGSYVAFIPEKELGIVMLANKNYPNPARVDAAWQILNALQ

Sequence of MOR (P35372 whole entry): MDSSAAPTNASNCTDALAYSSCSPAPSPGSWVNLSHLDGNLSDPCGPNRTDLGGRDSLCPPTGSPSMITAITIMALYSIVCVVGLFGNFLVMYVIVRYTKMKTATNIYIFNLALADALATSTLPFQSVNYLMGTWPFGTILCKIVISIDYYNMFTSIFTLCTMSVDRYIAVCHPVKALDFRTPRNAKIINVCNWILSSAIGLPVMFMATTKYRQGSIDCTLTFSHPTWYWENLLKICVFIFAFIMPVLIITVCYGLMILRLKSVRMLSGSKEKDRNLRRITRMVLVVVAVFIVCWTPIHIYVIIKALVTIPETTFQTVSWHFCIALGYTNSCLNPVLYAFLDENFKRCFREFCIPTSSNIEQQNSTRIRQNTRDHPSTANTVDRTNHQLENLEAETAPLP
Sequence of KOR (P41145 whole entry): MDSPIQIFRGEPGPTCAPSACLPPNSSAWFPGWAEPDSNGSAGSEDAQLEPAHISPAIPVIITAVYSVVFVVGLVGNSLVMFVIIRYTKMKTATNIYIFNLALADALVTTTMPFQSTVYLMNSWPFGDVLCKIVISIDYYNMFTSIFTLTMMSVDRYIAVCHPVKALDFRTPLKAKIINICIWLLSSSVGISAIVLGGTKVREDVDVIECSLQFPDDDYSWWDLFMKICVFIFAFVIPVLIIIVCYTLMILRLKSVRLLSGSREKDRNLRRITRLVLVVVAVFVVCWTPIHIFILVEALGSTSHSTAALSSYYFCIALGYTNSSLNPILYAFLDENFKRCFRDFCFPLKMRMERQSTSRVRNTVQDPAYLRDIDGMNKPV
Sequence of H3 (Q9Y5N1 whole entry): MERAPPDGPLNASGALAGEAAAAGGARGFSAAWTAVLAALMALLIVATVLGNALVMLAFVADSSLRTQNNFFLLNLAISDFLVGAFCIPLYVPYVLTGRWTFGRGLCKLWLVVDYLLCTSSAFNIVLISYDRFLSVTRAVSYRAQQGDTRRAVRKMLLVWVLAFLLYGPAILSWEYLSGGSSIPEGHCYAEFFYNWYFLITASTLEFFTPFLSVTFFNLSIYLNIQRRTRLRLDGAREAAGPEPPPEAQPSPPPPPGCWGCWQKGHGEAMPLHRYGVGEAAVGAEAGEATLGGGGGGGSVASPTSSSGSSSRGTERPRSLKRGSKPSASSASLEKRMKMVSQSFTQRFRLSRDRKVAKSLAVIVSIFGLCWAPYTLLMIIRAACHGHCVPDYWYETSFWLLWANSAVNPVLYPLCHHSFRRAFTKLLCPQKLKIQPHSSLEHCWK
Sequence of DOR (P41143 whole entry): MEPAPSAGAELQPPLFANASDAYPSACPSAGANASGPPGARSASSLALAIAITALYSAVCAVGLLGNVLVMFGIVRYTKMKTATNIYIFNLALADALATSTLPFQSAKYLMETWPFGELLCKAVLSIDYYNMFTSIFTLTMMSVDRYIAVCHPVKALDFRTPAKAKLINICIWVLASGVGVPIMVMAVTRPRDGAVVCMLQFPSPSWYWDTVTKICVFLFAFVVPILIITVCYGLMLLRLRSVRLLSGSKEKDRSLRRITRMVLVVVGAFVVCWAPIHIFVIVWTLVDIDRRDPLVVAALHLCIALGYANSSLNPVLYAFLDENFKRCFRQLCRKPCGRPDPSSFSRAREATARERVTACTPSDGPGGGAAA
Sequence of D1 (P21728 whole entry): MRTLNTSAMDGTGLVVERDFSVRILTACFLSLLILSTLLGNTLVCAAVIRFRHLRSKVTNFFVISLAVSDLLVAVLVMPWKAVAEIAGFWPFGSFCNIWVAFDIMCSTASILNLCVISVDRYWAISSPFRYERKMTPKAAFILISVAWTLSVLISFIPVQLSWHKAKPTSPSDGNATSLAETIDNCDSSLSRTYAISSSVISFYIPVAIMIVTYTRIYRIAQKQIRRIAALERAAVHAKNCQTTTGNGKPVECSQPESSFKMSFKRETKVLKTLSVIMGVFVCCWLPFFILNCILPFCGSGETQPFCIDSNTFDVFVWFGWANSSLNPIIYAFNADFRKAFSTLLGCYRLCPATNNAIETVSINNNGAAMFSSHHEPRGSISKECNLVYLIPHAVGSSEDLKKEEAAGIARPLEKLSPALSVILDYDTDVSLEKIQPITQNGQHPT

In the case of `C=C(C)[C@H]1CCC(C)=C[C@@H]1c1c(O)cc(CCCCC)cc1O` [(+)-CBD], the CB2 receptor affinity (CB2 receptor) is given as “below 1 μM” and the CB1 receptor affinity (CB1 receptor) is given as “below 1 μM”.
In the case of `C=C(C)[C@@H]1CCC(C)=C[C@H]1c1c(O)cc(CCCCC)cc1O` [CBD, Cannabidiol], the inhibition at 10 µM (5-HT2C) is given as greater than 50%, the inhibition at 10 µM (KOR) is given as greater than 50% and the “number of genes altered in gene expression arrays” value (mice) is given as greater than 50 genes. The Ki (σ2) was greater than 1 µM, the inhibition at 10 µM (σ2) was greater than 50% and the EC50 (5-HT1A receptor) was 8 to 16 µM. For the same molecule, the inhibition at 10 µM (DOR) was greater than 50%, the “change in PANSS scores” value [1] was “clinically-significant reduction” and the “concentration at which detectable colloidal aggregates form (DLS)” value [2] was “approximately 12.5 μM”. For the same molecule, the inhibition at 10 µM (D1) was greater than 50%, the inhibition at 10 µM (ɑ2C) was greater than 50% and the “concentration at which CBD promotes DDI and potentiates the action of many drugs” value [3] was 5 to 10 µM. The chemical stability [4] was “chemically unstable”, the plasma concentration ([5]; humans, single dose of an oral preparation containing 100 mg of CBD) was 36 ng/mL and approximately 100 nM and the volume of distribution ([5]; oromucosal spray formulations) was 26,000–31,000 L. The “apparent plasma clearance (CL')” value ([5]; doses 5–20 mg) was 2,500–4,700 L/h, the “apparent plasma clearance (CL')” value ([5]; fed state) was 533 L/h and the “concentration at which CBD promiscuously affects ion channels” value (ion channels) was 0.1 to 5 µM. The inhibition at 10 µM (H3) was greater than 50%, the “inhibition of malate dehydrogenase (MDH)” value [6] was “detergent-sensitive inhibition” and the inhibition at 10 µM (MOR) was greater than 50%. For the same molecule, the inhibition at 10 µM (ɑ2b) was greater than 50% and the “inhibition of AmpC β-lactamase” value (AmpC β-lactamase) was “detergent-sensitive inhibition”.
In the case of `CCCCCc1cc(O)c([C@@H]2C=C(C)CC[C@H]2C(C)C)c(O)c1` [H2-CBD], the “affinity for the CB1 receptor” value (CB1 receptor) is given as “moderate affinity”.
